Like-named read-outs stand apart in the source and are kept apart here.
Tests used:
BRM = BRM (Homo sapiens, UniProt P51531); assay: ATPase catalytic activity assay of BRM (ADP-Glo); assay type: biochemical; settings: for IC50: read-out: BRM IC50 (μM)*
Method: (§1) The ATPase catalytic activity of BRM or BRG-1 was measured by the in vitro biochemical assay using ADP-Glo™ (Promega, V9102). The ADP-Glo™ kinase assay is performed in two steps once the reaction is complete. The first step is to deplete any unconsumed ATP in the reaction. The second step is to convert the reaction product ADP to ATP, which will be utilized by the luciferase to generate luminesce and be detected by a luminescence reader, such as Envision.
(§2) Then following addition of 5 μL of ADP-Glo™ Reagent provided in the kit, the reaction incubates at room temperature for 40 minutes. Then 10 μL of Kinase Detection Reagent provided in the kit is added to convert ADP to ATP, and the reaction incubates at room temperature for 60 minutes. Finally, luminescence measurement is collected with a plate-reading luminometer, such as Envision.
as §1, with “The” for “The ATPase catalytic activity of BRM or BRG-1 was measured by the in vitro biochemical assay using ADP-Glo™ (Promega, V9102). The”

BRG-1 = BRG-1 (Homo sapiens, UniProt P51532); assay: ATPase catalytic activity assay of BRG-1 (ADP-Glo); assay type: biochemical; settings: ATPase catalytic activity, ADP-Glo; for IC50: read-out: BRG1 IC50 (μM)*; for Emax: read-out: BRG1 Max % Inhibition
Sequence of BRG-1 (P51532 whole entry): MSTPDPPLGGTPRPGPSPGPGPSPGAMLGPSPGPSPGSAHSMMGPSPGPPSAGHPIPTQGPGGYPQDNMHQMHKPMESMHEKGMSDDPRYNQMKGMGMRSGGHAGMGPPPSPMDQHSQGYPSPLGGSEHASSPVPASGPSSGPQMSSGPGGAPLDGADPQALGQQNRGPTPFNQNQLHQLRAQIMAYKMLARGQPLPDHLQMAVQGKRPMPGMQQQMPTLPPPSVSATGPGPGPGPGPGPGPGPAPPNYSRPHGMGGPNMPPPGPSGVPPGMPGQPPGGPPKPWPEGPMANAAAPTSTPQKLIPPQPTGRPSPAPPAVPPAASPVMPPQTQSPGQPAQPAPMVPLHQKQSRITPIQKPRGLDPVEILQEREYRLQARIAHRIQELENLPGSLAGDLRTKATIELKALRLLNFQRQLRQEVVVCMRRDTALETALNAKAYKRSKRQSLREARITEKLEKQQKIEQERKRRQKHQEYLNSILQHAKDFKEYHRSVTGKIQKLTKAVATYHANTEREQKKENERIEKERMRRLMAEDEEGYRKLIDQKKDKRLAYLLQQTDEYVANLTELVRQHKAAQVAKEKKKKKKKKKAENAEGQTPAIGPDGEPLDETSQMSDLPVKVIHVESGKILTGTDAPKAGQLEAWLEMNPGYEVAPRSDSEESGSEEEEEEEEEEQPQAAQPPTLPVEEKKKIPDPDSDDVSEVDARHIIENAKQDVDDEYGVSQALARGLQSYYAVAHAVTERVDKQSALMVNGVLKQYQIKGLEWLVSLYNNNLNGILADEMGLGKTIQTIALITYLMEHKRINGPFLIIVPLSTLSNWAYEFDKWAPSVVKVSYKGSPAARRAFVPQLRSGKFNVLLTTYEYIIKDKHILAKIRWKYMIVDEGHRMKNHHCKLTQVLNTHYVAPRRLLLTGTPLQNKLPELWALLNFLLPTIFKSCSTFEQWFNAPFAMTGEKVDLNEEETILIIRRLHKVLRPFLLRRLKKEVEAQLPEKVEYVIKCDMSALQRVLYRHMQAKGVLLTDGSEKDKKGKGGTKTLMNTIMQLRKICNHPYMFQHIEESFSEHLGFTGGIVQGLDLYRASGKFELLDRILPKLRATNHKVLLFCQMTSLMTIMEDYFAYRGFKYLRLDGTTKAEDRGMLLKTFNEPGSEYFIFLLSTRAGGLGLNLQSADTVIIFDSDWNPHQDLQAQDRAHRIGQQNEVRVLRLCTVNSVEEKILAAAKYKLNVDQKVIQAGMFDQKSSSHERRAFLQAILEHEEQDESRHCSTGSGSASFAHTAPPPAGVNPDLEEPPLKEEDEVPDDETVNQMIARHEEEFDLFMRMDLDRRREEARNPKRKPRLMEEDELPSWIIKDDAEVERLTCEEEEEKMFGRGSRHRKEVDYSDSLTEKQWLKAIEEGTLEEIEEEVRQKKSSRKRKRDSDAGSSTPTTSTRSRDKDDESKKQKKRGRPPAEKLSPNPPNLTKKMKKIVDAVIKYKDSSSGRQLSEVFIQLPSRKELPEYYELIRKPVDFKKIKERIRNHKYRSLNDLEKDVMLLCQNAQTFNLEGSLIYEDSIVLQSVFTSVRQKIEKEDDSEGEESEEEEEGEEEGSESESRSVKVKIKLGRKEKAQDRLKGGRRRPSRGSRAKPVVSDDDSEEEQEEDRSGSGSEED
Method: as §1, §2
as §1, with “The” for “The ATPase catalytic activity of BRM or BRG-1 was measured by the in vitro biochemical assay using ADP-Glo™ (Promega, V9102). The”

Sequence of BRM (P51531 whole entry): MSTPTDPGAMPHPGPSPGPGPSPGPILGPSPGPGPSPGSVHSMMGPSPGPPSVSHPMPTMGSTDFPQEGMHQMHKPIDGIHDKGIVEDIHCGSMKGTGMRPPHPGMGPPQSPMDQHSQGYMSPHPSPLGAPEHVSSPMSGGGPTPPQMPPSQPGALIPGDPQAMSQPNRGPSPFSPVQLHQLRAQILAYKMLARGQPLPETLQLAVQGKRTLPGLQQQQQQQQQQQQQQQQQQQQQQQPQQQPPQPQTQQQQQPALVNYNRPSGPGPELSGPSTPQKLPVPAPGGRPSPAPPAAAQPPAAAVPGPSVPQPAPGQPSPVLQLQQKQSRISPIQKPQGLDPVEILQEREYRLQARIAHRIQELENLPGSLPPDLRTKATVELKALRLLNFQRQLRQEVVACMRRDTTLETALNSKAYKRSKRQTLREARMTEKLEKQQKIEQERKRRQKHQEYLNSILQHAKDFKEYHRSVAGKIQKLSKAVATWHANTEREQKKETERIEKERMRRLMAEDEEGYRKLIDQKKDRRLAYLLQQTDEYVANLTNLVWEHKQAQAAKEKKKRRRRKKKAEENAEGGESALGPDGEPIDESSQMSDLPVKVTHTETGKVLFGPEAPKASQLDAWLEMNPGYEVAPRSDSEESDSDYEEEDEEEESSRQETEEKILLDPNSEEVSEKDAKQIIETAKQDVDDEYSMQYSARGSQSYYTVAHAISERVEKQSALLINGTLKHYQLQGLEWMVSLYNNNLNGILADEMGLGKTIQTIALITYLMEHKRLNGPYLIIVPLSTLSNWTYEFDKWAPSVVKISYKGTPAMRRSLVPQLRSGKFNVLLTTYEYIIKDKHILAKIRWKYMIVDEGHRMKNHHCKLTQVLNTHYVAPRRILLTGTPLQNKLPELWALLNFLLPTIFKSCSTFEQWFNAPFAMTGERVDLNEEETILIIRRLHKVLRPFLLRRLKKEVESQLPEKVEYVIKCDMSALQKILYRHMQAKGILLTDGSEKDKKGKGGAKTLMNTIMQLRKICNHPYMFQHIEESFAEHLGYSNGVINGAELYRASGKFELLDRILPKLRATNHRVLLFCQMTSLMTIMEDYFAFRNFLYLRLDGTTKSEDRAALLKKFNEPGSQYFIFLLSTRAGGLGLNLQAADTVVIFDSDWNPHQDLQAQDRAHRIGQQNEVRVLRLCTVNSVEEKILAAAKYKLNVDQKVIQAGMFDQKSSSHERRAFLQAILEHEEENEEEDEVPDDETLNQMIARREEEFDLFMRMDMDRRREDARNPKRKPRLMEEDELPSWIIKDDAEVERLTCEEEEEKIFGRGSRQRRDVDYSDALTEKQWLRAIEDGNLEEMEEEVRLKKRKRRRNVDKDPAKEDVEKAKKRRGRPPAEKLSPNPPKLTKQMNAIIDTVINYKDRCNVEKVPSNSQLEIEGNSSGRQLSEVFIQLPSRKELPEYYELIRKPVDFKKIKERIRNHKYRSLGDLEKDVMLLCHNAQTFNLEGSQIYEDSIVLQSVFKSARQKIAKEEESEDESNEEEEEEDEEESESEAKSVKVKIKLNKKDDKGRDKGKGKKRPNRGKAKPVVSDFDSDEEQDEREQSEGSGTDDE

| Compound | BRM Max % Inhibition (BRM) [%] | IC50 (BRM) [µM] | IC50 (BRG-1) [µM] | Emax (BRG-1) [%] | BRM Max % Inhibition (BRM; 30 nM BRM, 400 μM ATP) [%] | IC50 (BRM; 30 nM BRM, 400 μM ATP) [µM] | IC50 (BRG-1; 30 nM BRG-1, 400 μM ATP) [µM] | Emax (BRG-1; 30 nM BRG-1, 400 μM ATP) [%] |
| --- | --- | --- | --- | --- | --- | --- | --- | --- |
| C[C@@H]1CN(c2cccc(-c3csc(NC(=O)CNC(=O)c4ccc5c(c4)C(F)(F)COC5)n3)n2)C[C@H](C)O1 [Compound 385, N-(2-((4-(6-((cis)-2,6-dimethylmorpholino)pyridin-2-yl)thiazol-2-yl)amino)-2-oxoethyl)-4,4-difluoroisochromane-6-carboxamide] | >95 | < 0.1 | 0.1 to 1 | > 95 | – | – | – | – |
| C[C@@]1(C#N)COCc2ccc(C(=O)NCC(=O)Nc3nc(-c4cccc([C@@H]5CC5(F)F)n4)cs3)cc21 [Compound 386, (R)-4-cyano-N-(2-((4-(6-((S)-2,2-difluorocyclopropyl)pyridin-2-yl)thiazol-2-yl)amino)-2-oxoethyl)-4-methylisochromane-6-carboxamide] | >95 | < 0.1 | 0.1 to 1 | > 95 | – | – | – | – |
| C[C@@]1(C#N)COCc2ccc(C(=O)NCC(=O)Nc3nc(-c4cccc([C@@H]5CC5(F)F)c4)cs3)cc21 [Compound 388, (R)-4-cyano-N-(2-((4-(3-((S)-2,2-difluorocyclopropyl)phenyl)thiazol-2-yl)amino)-2-oxoethyl)-4-methylisochromane-6-carboxamide] | >95 | < 0.1 | < 0.1 | > 95 | – | – | – | – |
| C[C@@H]1CN(c2cccc(-c3csc(NC(=O)CNC(=O)c4ccc5c(c4)[C@](C)(C#N)CN5C)n3)c2)C[C@H](C)O1 [Compound 369, (S)-3-cyano-N-(2-((4-(3-((cis)-2,6-dimethylmorpholino)phenyl)thiazol-2-yl)amino)-2-oxoethyl)-1,3-dimethylindoline-5-carboxamide] | >95 | < 0.1 | < 0.1 | > 95 | – | – | – | – |
| C[C@@H]1CN(c2cccc(-c3csc(NC(=O)CNC(=O)c4ccc5c(c4)C(C)(C)COC5)n3)n2)C[C@H](C)O1 [Compound 282, N-(2-((4-(6-((cis)-2,6-dimethylmorpholino)pyridin-2-yl)thiazol-2-yl)amino)-2-oxoethyl)-4,4-dimethylisochromane-6-carboxamide] | >95 | < 0.1 | 0.1 to 1 | > 95 | – | – | – | – |
| Cc1cc(-c2cccc(-c3csc(NC(=O)CNC(=O)c4ccc(Cl)c(C(C)(C)CO)c4)n3)n2)ncn1 [Compound 216, 4-chloro-3-(2-hydroxy-1,1-dimethyl-ethyl)-N-[2-[[4-[6-(6-methylpyrimidin-4-yl)-2-pyridyl]thiazol-2-yl]amino]-2-oxo-ethyl]benzamide] | >95 | < 0.1 | 0.1 to 1 | > 95 | – | – | – | – |
| COc1cc(-c2cccc(-c3csc(NC(=O)CNC(=O)c4cccc(C(C)(C)CN)c4)n3)c2)ccn1 [Compound 49, 3-(1-amino-2-methylpropan-2-yl)-N-(2-((4-(3-(2-methoxypyridin-4-yl)phenyl)thiazol-2-yl)amino)-2-oxoethyl)benzamide] | >80 | 0.1 to 1 | > 5 | > 60 | – | – | – | – |
| Cn1ccc2ccc(-c3csc(NC(=O)CNC(=O)c4cccc(C(C)(C)CN)c4)n3)cc2c1=O [Compound 67, 3-(1-amino-2-methylpropan-2-yl)-N-(2-((4-(2-methyl-1-oxo-1,2-dihydroisoquinolin-7-yl)thiazol-2-yl)amino)-2-oxoethyl)benzamide] | >70 | 1 to 5 | 1 to 5 | > 40 | – | – | – | – |
| C[C@@H]1CN(c2cccc(-c3csc(NC(=O)CNC(=O)c4ccc5c(c4)[C@](C)(CO)CC5)n3)n2)C[C@H](C)O1 [Compound 223, (R)-N-(2-((4-(6-((cis)-2,6-dimethylmorpholino)pyridin-2-yl)thiazol-2-yl)amino)-2-oxoethyl)-3-(hydroxymethyl)-3-methyl-2,3-dihydro-1H-indene-5-carboxamide] | >95 | < 0.1 | 1 to 5 | > 80 | – | – | – | – |
| COc1cc(-c2csc(NC(=O)CNC(=O)c3ccc4c(c3)[C@](C)(C#N)COC4)n2)ccc1F [Compound 399, (R)-4-cyano-N-(2-((4-(4-fluoro-3-methoxyphenyl)thiazol-2-yl)amino)-2-oxoethyl)-4-methylisochromane-6-carboxamide] | >95 | < 0.1 | 0.1 to 1 | > 95 | – | – | – | – |
| COc1cccc(-c2csc(NC(=O)CNC(=O)c3ccc4c(c3)[C@](C)(F)CCOC4)n2)c1 [Compound 279, (R)-5-fluoro-N-(2-((4-(3-methoxyphenyl)thiazol-2-yl)amino)-2-oxoethyl)-5-methyl-1,3,4,5-tetrahydrobenzo[c]oxepine-7-carboxamide] | >90 | 0.1 to 1 | 0.1 to 1 | > 90 | – | – | – | – |
| COc1cccc(-c2csc(NC(=O)CNC(=O)c3ccc4c(c3)[C@](C)(F)COC4)n2)c1 [Compound 312, (S)-4-fluoro-N-(2-((4-(3-methoxyphenyl)thiazol-2-yl)amino)-2-oxoethyl)-4-methylisochromane-6-carboxamide] | >95 | < 0.1 | 0.1 to 1 | > 95 | – | – | – | – |
| COc1cccc(-c2csc(NC(=O)CNC(=O)c3ccc4c(c3)C(C)(O)COC4)n2)c1 (stereo not drawn) [Compound 313, 4-hydroxy-N-(2-((4-(3-methoxyphenyl)thiazol-2-yl)amino)-2-oxoethyl)-4-methylisochromane-6-carboxamide] | >90 | 0.1 to 1 | 1 to 5 | > 90 | – | – | – | – |
| CN1CCCc2ccc(C(=O)NCC(=O)Nc3nc(-c4cccc(-c5ccncc5)c4)cs3)cc2S1(=O)=O [Compound 131, 2-methyl-1,1-dioxo-N-[2-oxo-2-[[4-[3-(4-pyridyl)phenyl]thiazol-2-yl]amino]ethyl]-4,5-dihydro-3H-1,2-benzothiazepine-8-carboxamide] | >95 | < 0.1 | 0.1 to 1 | > 70 | – | – | – | – |
| C[C@@]1(F)COCc2ccc(C(=O)NCC(=O)Nc3nc(-c4cc(F)cc(C#N)c4)cs3)cc21 [Compound 314, (S)-N-(2-((4-(3-cyano-5-fluorophenyl)thiazol-2-yl)amino)-2-oxoethyl)-4-fluoro-4-methylisochromane-6-carboxamide] | >90 | < 0.1 | 0.1 to 1 | > 90 | – | – | – | – |
| C[C@@]1(C#N)COCc2ccc(C(=O)NCC(=O)Nc3nc(-c4cc(F)c5c(c4)OCC5)cs3)cc21 [Compound 353, (R)-4-cyano-N-(2-((4-(4-fluoro-2,3-dihydrobenzofuran-6-yl)thiazol-2-yl)amino)-2-oxoethyl)-4-methylisochromane-6-carboxamide] | >95 | < 0.1 | < 0.1 | > 95 | – | – | – | – |
| C[C@@H]1CN(c2cccc(-c3csc(NC(=O)CNC(=O)c4cccc([C@H]5COC[C@@H]5O)c4)n3)c2)C[C@H](C)O1 [Compound 156, N-(2-((4-(3-((cis)-2,6-dimethylmorpholino)phenyl)thiazol-2-yl)amino)-2-oxoethyl)-3-((3S,4R)-4-hydroxytetrahydrofuran-3-yl)benzamide] | >80 | 0.1 to 1 | > 5 | > 30 | – | – | – | – |
| C[C@@H]1CN(c2cccc(-c3csc(NC(=O)CNC(=O)c4ccc5c(c4)C(C#N)(CO)COC5)n3)c2)C[C@H](C)O1 (stereo partly drawn) [Compound 374, 4-cyano-N-(2-((4-(3-((cis)-2,6-dimethylmorpholino)phenyl)thiazol-2-yl)amino)-2-oxoethyl)-4-(hydroxymethyl)isochromane-6-carboxamide] | >95 | < 0.1 | 0.1 to 1 | > 95 | – | – | – | – |
| C[C@@H]1CN(c2cccc(-c3csc(NC(=O)CNC(=O)c4ccc5c(c4)[C@](C)(C#N)COC5)n3)c2)C[C@H](C)O1 [Compound 254, (R)-4-cyano-N-(2-((4-(3-((cis)-2,6-dimethylmorpholino)phenyl)thiazol-2-yl)amino)-2-oxoethyl)-4-methylisochroman-6-carboxamide] | >95 | < 0.1 | < 0.1 | > 95 | – | – | – | – |
| C[C@@H]1CN(c2cccc(-c3csc(NC(=O)CNC(=O)c4ccc5c(c4)[C@](C)(C#N)CC5)n3)n2)C[C@H](C)O1 [Compound 152, (R)-3-cyano-N-(2-((4-(6-((cis)-2,6-dimethylmorpholino)pyridin-2-yl)thiazol-2-yl)amino)-2-oxoethyl)-3-methyl-2,3-dihydro-1H-indene-5-carboxamide] | >95 | < 0.1 | < 0.1 | > 95 | – | – | – | – |
| CC1(C#N)CCOc2ccc(C(=O)NCC(=O)Nc3nc(-c4cccc(C(F)F)c4)cs3)cc21 (stereo in doubt) [Compound 442, (S)-4-cyano-N-(2-((4-(3-(difluoromethyl)phenyl)thiazol-2-yl)amino)-2-oxoethyl)-4-methylchromane-6-carboxamide] | – | – | – | – | >95 | < 0.1 | 0.1 to 1 | > 95 |

Source: patent publication US12685735B2 (Foghorn Therapeutics Inc., priority 2020, dated 2026)
